ChEMBL document CHEMBL1151336, “Recent Biosynthetic Studies on Antibiotics” (J Nat Prod, 1980)
Values after ≈ are worked out from the molar mass of the structure shown.

Columns and labels:
[1] = system: Bacillus subtilis; assay: Antibacterial activity against Bacillus subtilis; format: functional
[2] = system: KB; assay: Cytotoxicity against human KB cells; format: functional
[3] = Toxicity in orally dosed mouse; format: organism-based; settings: in vivo, po
[4] = system: Rous sarcoma virus; assay: Antiviral activity against Rous sarcoma virus at 0.5 mg/kg; format: functional

For `CC(=O)c1cccc(N[C@H]2[C@H](N)[C@@](NC(=O)N(C)C)([C@H](C)O)[C@@](C)(O)[C@@]2(O)COC(=O)c2c(C)cccc2O)c1` [PACTAMYCIN], the MIC [1] was 0.8 mg/L (≈ 1.43 µM), the MIC [2] was 0.003 mg/L (≈ 0.00537 µM) and the LD50 [3] was 10.7 mg/kg. It also gave an inhibition in vivo at 0.5 mg/kg [4] of 30%.
